Organism: Rattus norvegicus
Assay: Open TG-GATES - Regimen: Daily Repeat
Type: toxicity, organism-based, Sprague-Dawley
Parameters: regimen Daily Repeat, gender Male, age 6 weeks
Settings: in vivo, po, route gavage; for APTT / Bas / Eos / Fbg / Hb / Ht / Lym / MCH / MCHC / MCV / Mono / Neu / PT / Plat / RBC / Ret / WBC: tissue Blood; for KIDNEY_L / KIDNEY_R / KIDNEY_TOTAL: tissue Kidney; for LIVER: tissue Liver; for A/G / ALP / ALT / AST / BUN / CRE / Ca / Cl / DBIL / GLC / IP / K / LDH / Na / PL / RALB / TBIL / TC / TG / TP / gamma-GTP: tissue Plasma
[1] = 0 mg/kg, 72 h, dose level Control, time 3 day
[2] = 0 mg/kg, […], dose level Control, time 7 day
[3] = 0 mg/kg, […], dose level Control, time 14 day
[4] = 0 mg/kg, […], dose level Control, time 28 day
[5] = 30 mg/kg, 72 h, dose level Low, time 3 day
[6] = 30 mg/kg, […], dose level Low, time 7 day
[7] = 30 mg/kg, […], dose level Low, time 14 day
[8] = 30 mg/kg, […], dose level Low, time 28 day

## Clc1c(Cl)c(Cl)c(Cl)c(Cl)c1Cl [PERCHLOROBENZENE]
[1]
  TERMINAL_BW: 224.3 g
  APTT: 16.2 s
  Bas: 0%
  Eos: 1.2%
  Fbg: 217.4 mg/dL
  Hb: 13.7 g/dL
  Ht: 40.9%
  Lym: 77%
  MCH: 22 pg
  MCHC: 33.5%
  MCV: 65.6 fL
  Mono: 8%
  Neu: 13.8%
  PT: 11.8 s
  Plat: 98.6 x10_4/uL
  RBC: 623.2 x10_4/ul
  Ret: 8.6%
  WBC: 102.9 x10_2/uL
  KIDNEY_L: 1.1 g
  KIDNEY_R: 1.1 g
  KIDNEY_TOTAL: 2.2 g
  LIVER: 11.5 g
  A/G: 2.1
  ALP: 882.4 IU/L
  ALT: 40.2 IU/L
  AST: 59 IU/L
  BUN: 16.2 mg/dL
  CRE: 0.5 mg/dL
  Ca: 10.5 mg/dL
  Cl: 105.2 meq/L
  DBIL: 0.038 mg/dL
  GLC: 193.4 mg/dL
  IP: 8.5 mg/dL
  K: 5.4 meq/L
  LDH: 85.8 IU/L
  Na: 138.6 meq/L
  PL: 135 mg/dL
  RALB: 3.9 g/dL
  TBIL: 0.3 mg/dL
  TC: 73 mg/dL
  TG: 68.8 mg/dL
  TP: 5.8 g/dL
  gamma-GTP: 1.4 IU/L
[2]
  TERMINAL_BW: 255.4 g
  APTT: 15.8 s
  Bas: 0%
  Eos: 1.2%
  Fbg: 222.8 mg/dL
  Hb: 14.2 g/dL
  Ht: 42.4%
  Lym: 76.6%
  MCH: 21.8 pg
  MCHC: 33.4%
  MCV: 65.2 fL
  Mono: 7.2%
  Neu: 14.8%
  PT: 12 s
  Plat: 96.5 x10_4/uL
  RBC: 651.2 x10_4/ul
  Ret: 5.9%
  WBC: 105.4 x10_2/uL
  KIDNEY_L: 1.1 g
  KIDNEY_R: 1.2 g
  KIDNEY_TOTAL: 2.3 g
  LIVER: 12.9 g
  A/G: 2
  ALP: 912 IU/L
  ALT: 33.4 IU/L
  AST: 58.6 IU/L
  BUN: 19.2 mg/dL
  CRE: 0.6 mg/dL
  Ca: 10.3 mg/dL
  Cl: 105.2 meq/L
  DBIL: 0.024 mg/dL
  GLC: 193.6 mg/dL
  IP: 7.7 mg/dL
  K: 4.8 meq/L
  LDH: 95.8 IU/L
  Na: 137.4 meq/L
  PL: 148.6 mg/dL
  RALB: 4 g/dL
  TBIL: 0.4 mg/dL
  TC: 78.2 mg/dL
  TG: 94.6 mg/dL
  TP: 5.9 g/dL
  gamma-GTP: 1 IU/L
[3]
  TERMINAL_BW: 321.1 g
  APTT: 16 s
  Bas: 0%
  Eos: 1%
  Fbg: 237.6 mg/dL
  Hb: 14.4 g/dL
  Ht: 43%
  Lym: 78.8%
  MCH: 21.2 pg
  MCHC: 33.5%
  MCV: 63.2 fL
  Mono: 6.4%
  Neu: 13.8%
  PT: 11.9 s
  Plat: 106.8 x10_4/uL
  RBC: 681.2 x10_4/ul
  Ret: 5.2%
  WBC: 160.8 x10_2/uL
  KIDNEY_L: 1.3 g
  KIDNEY_R: 1.3 g
  KIDNEY_TOTAL: 2.6 g
  LIVER: 15.7 g
  A/G: 1.8
  ALP: 615.2 IU/L
  ALT: 31.2 IU/L
  AST: 58.2 IU/L
  BUN: 18.6 mg/dL
  CRE: 0.6 mg/dL
  Ca: 10.2 mg/dL
  Cl: 105.6 meq/L
  DBIL: 0.004 mg/dL
  GLC: 189 mg/dL
  IP: 7.6 mg/dL
  K: 4.9 meq/L
  LDH: 98 IU/L
  Na: 138.4 meq/L
  PL: 155.6 mg/dL
  RALB: 4 g/dL
  TBIL: 0.3 mg/dL
  TC: 79 mg/dL
  TG: 136.4 mg/dL
  TP: 6.2 g/dL
  gamma-GTP: 1.2 IU/L
[4]
  TERMINAL_BW: 417.1 g
  APTT: 16.5 s
  Bas: 0%
  Eos: 1.2%
  Fbg: 221 mg/dL
  Hb: 15.2 g/dL
  Ht: 45.9%
  Lym: 83.4%
  MCH: 19.3 pg
  MCHC: 33.1%
  MCV: 58.5 fL
  Mono: 4.8%
  Neu: 10.8%
  PT: 11.7 s
  Plat: 97.1 x10_4/uL
  RBC: 783.8 x10_4/ul
  Ret: 2.5%
  WBC: 133.5 x10_2/uL
  KIDNEY_L: 1.4 g
  KIDNEY_R: 1.5 g
  KIDNEY_TOTAL: 2.9 g
  LIVER: 18.2 g
  A/G: 1.8
  ALP: 643.6 IU/L
  ALT: 32.6 IU/L
  AST: 54.2 IU/L
  BUN: 18.6 mg/dL
  CRE: 0.7 mg/dL
  Ca: 10.6 mg/dL
  Cl: 105.4 meq/L
  DBIL: 0.014 mg/dL
  GLC: 193 mg/dL
  IP: 7.5 mg/dL
  K: 4.3 meq/L
  LDH: 102 IU/L
  Na: 140 meq/L
  PL: 160.4 mg/dL
  RALB: 4.2 g/dL
  TBIL: 0.3 mg/dL
  TC: 77 mg/dL
  TG: 140.6 mg/dL
  TP: 6.5 g/dL
  gamma-GTP: 1 IU/L
[5]
  TERMINAL_BW: 223.9 g
  APTT: 16.2 s
  Bas: 0%
  Eos: 1.2%
  Fbg: 215.4 mg/dL
  Hb: 13.9 g/dL
  Ht: 41.8%
  Lym: 72.2%
  MCH: 21.8 pg
  MCHC: 33.3%
  MCV: 65.6 fL
  Mono: 6.8%
  Neu: 19.6%
  PT: 11.5 s
  Plat: 98.9 x10_4/uL
  RBC: 637.6 x10_4/ul
  Ret: 7.6%
  WBC: 102.3 x10_2/uL
  KIDNEY_L: 1.1 g
  KIDNEY_R: 1.1 g
  KIDNEY_TOTAL: 2.2 g
  LIVER: 12.4 g
  A/G: 2.2
  ALP: 816 IU/L
  ALT: 41.6 IU/L
  AST: 67 IU/L
  BUN: 14.6 mg/dL
  CRE: 0.5 mg/dL
  Ca: 10.5 mg/dL
  Cl: 105.6 meq/L
  DBIL: 0.028 mg/dL
  GLC: 194.4 mg/dL
  IP: 8.3 mg/dL
  K: 5.1 meq/L
  LDH: 104 IU/L
  Na: 139.6 meq/L
  PL: 143.8 mg/dL
  RALB: 3.9 g/dL
  TBIL: 0.4 mg/dL
  TC: 82 mg/dL
  TG: 79.8 mg/dL
  TP: 5.7 g/dL
  gamma-GTP: 1.4 IU/L
[6]
  TERMINAL_BW: 255.4 g
  APTT: 16.5 s
  Bas: 0%
  Eos: 1.4%
  Fbg: 225 mg/dL
  Hb: 14 g/dL
  Ht: 42%
  Lym: 79.6%
  MCH: 21.1 pg
  MCHC: 33.4%
  MCV: 63.3 fL
  Mono: 5.2%
  Neu: 14.2%
  PT: 11.6 s
  Plat: 116.4 x10_4/uL
  RBC: 663.6 x10_4/ul
  Ret: 5.4%
  WBC: 97.6 x10_2/uL
  KIDNEY_L: 1.2 g
  KIDNEY_R: 1.2 g
  KIDNEY_TOTAL: 2.4 g
  LIVER: 14.7 g
  A/G: 2.1
  ALP: 719.8 IU/L
  ALT: 33.2 IU/L
  AST: 55.8 IU/L
  BUN: 15.8 mg/dL
  CRE: 0.6 mg/dL
  Ca: 10.4 mg/dL
  Cl: 104.8 meq/L
  DBIL: 0.002 mg/dL
  GLC: 190.6 mg/dL
  IP: 7.9 mg/dL
  K: 5 meq/L
  LDH: 93.6 IU/L
  Na: 137.6 meq/L
  PL: 166.4 mg/dL
  RALB: 4 g/dL
  TBIL: 0.5 mg/dL
  TC: 89.4 mg/dL
  TG: 129.8 mg/dL
  TP: 5.9 g/dL
  gamma-GTP: 1.2 IU/L
[7]
  TERMINAL_BW: 320.4 g
  APTT: 17.7 s
  Bas: 0%
  Eos: 1.6%
  Fbg: 225.8 mg/dL
  Hb: 14.4 g/dL
  Ht: 43%
  Lym: 66.8%
  MCH: 20.5 pg
  MCHC: 33.5%
  MCV: 61.3 fL
  Mono: 12%
  Neu: 19.6%
  PT: 11.9 s
  Plat: 119 x10_4/uL
  RBC: 702.6 x10_4/ul
  Ret: 4.3%
  WBC: 113.1 x10_2/uL
  KIDNEY_L: 1.3 g
  KIDNEY_R: 1.4 g
  KIDNEY_TOTAL: 2.7 g
  LIVER: 20.2 g
  A/G: 1.8
  ALP: 589.2 IU/L
  ALT: 35.4 IU/L
  AST: 61.8 IU/L
  BUN: 17.6 mg/dL
  CRE: 0.6 mg/dL
  Ca: 10.4 mg/dL
  Cl: 105.4 meq/L
  DBIL: 0.004 mg/dL
  GLC: 173.2 mg/dL
  IP: 7.1 mg/dL
  K: 4.9 meq/L
  LDH: 84.6 IU/L
  Na: 139.6 meq/L
  PL: 201 mg/dL
  RALB: 4 g/dL
  TBIL: 0.4 mg/dL
  TC: 120.6 mg/dL
  TG: 119.6 mg/dL
  TP: 6.2 g/dL
  gamma-GTP: 2 IU/L
[8]
  TERMINAL_BW: 413.2 g
  APTT: 21.6 s
  Bas: 0%
  Eos: 1.8%
  Fbg: 258.6 mg/dL
  Hb: 15 g/dL
  Ht: 44.8%
  Lym: 69.8%
  MCH: 20.4 pg
  MCHC: 33.4%
  MCV: 61 fL
  Mono: 12%
  Neu: 16.2%
  PT: 13.2 s
  Plat: 102.4 x10_4/uL
  RBC: 735 x10_4/ul
  Ret: 3%
  WBC: 113.2 x10_2/uL
  KIDNEY_L: 1.7 g
  KIDNEY_R: 1.7 g
  KIDNEY_TOTAL: 3.4 g
  LIVER: 27.3 g
  A/G: 1.6
  ALP: 345.6 IU/L
  ALT: 35.6 IU/L
  AST: 55.2 IU/L
  BUN: 18.6 mg/dL
  CRE: 0.7 mg/dL
  Ca: 10.8 mg/dL
  Cl: 105 meq/L
  DBIL: 0.004 mg/dL
  GLC: 160.4 mg/dL
  IP: 7 mg/dL
  K: 4.7 meq/L
  LDH: 75 IU/L
  Na: 141.2 meq/L
  PL: 190.6 mg/dL
  RALB: 4.4 g/dL
  TBIL: 0.4 mg/dL
  TC: 118 mg/dL
  TG: 127.4 mg/dL
  TP: 7.2 g/dL
  gamma-GTP: 3.2 IU/L

Source: ChEMBL document CHEMBL3885861, “Open TG-GATES”
